“And” between values parts separate entries of the source, which are not always exact repeats. Equal values may be shown once.
Conditions: Liquid, Vibrating tube method

CCCCCCCC(=O)OCC(COC(=O)CCCCCCC)(COC(=O)CCCCCCC)COC(=O)CCCCCCC [pentaerythritol tetraoctanoate]
Conditions | mass density
303.15 K, 32860 kPa | 974.3 kg/m3
303.15 K, 32891 kPa | 974.3 kg/m3
303.15 K, 32922 kPa | 974.2 kg/m3
303.15 K, 32960 kPa | 974.3 kg/m3
303.15 K, 32992 kPa | 974.4 kg/m3
303.15 K, 33022 kPa | 974.3 kg/m3
303.15 K, 33060 kPa | 974.4 kg/m3
303.15 K, 33092 kPa | 974.4 kg/m3
303.15 K, 33129 kPa | 974.4 kg/m3
303.15 K, 33161 kPa | 974.4 kg/m3
303.15 K, 33192 kPa | 974.4 kg/m3
303.15 K, 33231 kPa | 974.5 kg/m3
303.15 K, 33263 kPa | 974.4 kg/m3
303.15 K, 33295 kPa | 974.5 kg/m3
303.15 K, 33327 kPa | 974.5 kg/m3
303.15 K, 33366 kPa | 974.6 kg/m3
303.15 K, 33398 kPa | 974.6 kg/m3
303.15 K, 33437 kPa | 974.6 kg/m3
303.15 K, 33469 kPa | 974.5 kg/m3
303.15 K, 33502 kPa | 974.6 kg/m3
303.15 K, 33541 kPa | 974.8 kg/m3
303.15 K, 33574 kPa | 974.6 kg/m3
303.15 K, 33607 kPa | 974.6 kg/m3
303.15 K, 33647 kPa | 974.7 kg/m3
303.15 K, 33682 kPa | 974.8 kg/m3
303.15 K, 33716 kPa | 974.7 kg/m3
303.15 K, 33760 kPa | 974.6 kg/m3
303.15 K, 33796 kPa | 974.8 kg/m3
303.15 K, 33832 kPa | 974.9 kg/m3
303.15 K, 33864 kPa | 974.9 kg/m3
303.15 K, 33892 kPa | 974.7 kg/m3
303.15 K, 33915 kPa | 974.9 kg/m3
303.15 K, 33938 kPa | 974.8 kg/m3
303.15 K, 33965 kPa | 975 kg/m3
303.15 K, 33988 kPa | 974.9 kg/m3
303.15 K, 34016 kPa | 974.8 kg/m3
303.15 K, 34039 kPa | 974.9 kg/m3
303.15 K, 34062 kPa | 975 kg/m3
303.15 K, 34092 kPa | 974.9 kg/m3
303.15 K, 34116 kPa | 975 kg/m3
303.15 K, 34141 kPa | 974.9 kg/m3
303.15 K, 34166 kPa | 975 kg/m3
303.15 K, 34196 kPa | 974.9 kg/m3
303.15 K, 34222 kPa | 975 kg/m3
303.15 K, 34255 kPa | 975.2 kg/m3
303.15 K, 34284 kPa | 975.1 kg/m3
303.15 K, 34313 kPa | 975 kg/m3
303.15 K, 34325 kPa | 975 kg/m3
303.15 K, 34326 kPa | 975.1 kg/m3
303.15 K, 34328 kPa | 975.1 kg/m3
303.15 K, 34329 kPa | 975.2 kg/m3
303.15 K, 34330 kPa | 975.2 kg/m3
303.15 K, 34332 kPa | 975.2 kg/m3
303.15 K, 34333 kPa | 975.1 kg/m3 and 975.2 kg/m3
303.15 K, 34335 kPa | 975.1 kg/m3
303.15 K, 34336 kPa | 975 kg/m3
303.15 K, 34337 kPa | 975 kg/m3
303.15 K, 34339 kPa | 975 kg/m3
303.15 K, 34340 kPa | 975 kg/m3 and 975.1 kg/m3
303.15 K, 34342 kPa | 975 kg/m3
303.15 K, 34343 kPa | 975 kg/m3
303.15 K, 34349 kPa | 975.1 kg/m3
303.15 K, 34350 kPa | 975 kg/m3
303.15 K, 34361 kPa | 975.2 kg/m3
303.15 K, 34371 kPa | 975.2 kg/m3
303.15 K, 34374 kPa | 975 kg/m3
303.15 K, 34375 kPa | 975.2 kg/m3
303.15 K, 34377 kPa | 975.2 kg/m3
303.16 K, 3295.7 kPa | 957.4 kg/m3
303.16 K, 3309.7 kPa | 957.5 kg/m3
303.16 K, 3323.8 kPa | 957.4 kg/m3
303.16 K, 3335.4 kPa | 957.5 kg/m3
303.16 K, 3349.9 kPa | 957.5 kg/m3
303.16 K, 3364.5 kPa | 957.5 kg/m3
303.16 K, 3376.5 kPa | 957.4 kg/m3
303.16 K, 3390.8 kPa | 957.6 kg/m3
303.16 K, 3405.4 kPa | 957.4 kg/m3
303.16 K, 3418 kPa | 957.6 kg/m3
303.16 K, 3432.9 kPa | 957.5 kg/m3
303.16 K, 3447.8 kPa | 957.5 kg/m3
303.16 K, 3460.5 kPa | 957.5 kg/m3
303.16 K, 3475.7 kPa | 957.5 kg/m3
303.16 K, 3490.8 kPa | 957.6 kg/m3
303.16 K, 3504 kPa | 957.5 kg/m3
303.16 K, 3519.7 kPa | 957.6 kg/m3
303.16 K, 3535.3 kPa | 957.7 kg/m3
303.16 K, 3548.8 kPa | 957.5 kg/m3
303.16 K, 3564.8 kPa | 957.5 kg/m3
303.16 K, 3593.9 kPa | 957.6 kg/m3
303.16 K, 3609.8 kPa | 957.6 kg/m3
303.16 K, 3626.1 kPa | 957.6 kg/m3
303.16 K, 3640.3 kPa | 957.7 kg/m3
303.16 K, 3656.9 kPa | 957.6 kg/m3
303.16 K, 3671 kPa | 957.7 kg/m3
303.16 K, 3688.1 kPa | 957.8 kg/m3
323.14 K, 32674 kPa | 960.8 kg/m3
323.14 K, 32807 kPa | 961 kg/m3
323.15 K, 104.51 kPa | 940.7 kg/m3
323.15 K, 104.52 kPa | 940.7 kg/m3 and 940.6 kg/m3
323.15 K, 105.05 kPa | 940.7 kg/m3
323.15 K, 105.56 kPa | 940.7 kg/m3
323.15 K, 107.29 kPa | 940.7 kg/m3
323.15 K, 110.42 kPa | 940.7 kg/m3
323.15 K, 119.65 kPa | 940.6 kg/m3
323.15 K, 137.02 kPa | 940.6 kg/m3
323.15 K, 166.4 kPa | 940.7 kg/m3
323.15 K, 245.49 kPa | 940.7 kg/m3
323.15 K, 268.79 kPa | 940.8 kg/m3
323.15 K, 281.82 kPa | 940.8 kg/m3
323.15 K, 299.57 kPa | 941 kg/m3
323.15 K, 315.89 kPa | 940.9 kg/m3
323.15 K, 333.79 kPa | 940.8 kg/m3
323.15 K, 351.71 kPa | 940.9 kg/m3
323.15 K, 362.82 kPa | 940.9 kg/m3
323.15 K, 374.29 kPa | 940.8 kg/m3
323.15 K, 388.88 kPa | 941 kg/m3
323.15 K, 401.56 kPa | 941 kg/m3
323.15 K, 413.39 kPa | 941 kg/m3
323.15 K, 427.29 kPa | 940.9 kg/m3
323.15 K, 439.11 kPa | 940.9 kg/m3
323.15 K, 449.2 kPa | 941 kg/m3
323.15 K, 461 kPa | 940.9 kg/m3
323.15 K, 471.78 kPa | 941 kg/m3
323.15 K, 482.73 kPa | 940.9 kg/m3
323.15 K, 496.63 kPa | 940.9 kg/m3
323.15 K, 509.14 kPa | 940.9 kg/m3
323.15 K, 522.17 kPa | 941 kg/m3
323.15 K, 538.51 kPa | 941.1 kg/m3
323.15 K, 552.59 kPa | 941 kg/m3
323.15 K, 567.71 kPa | 940.9 kg/m3
323.15 K, 586.82 kPa | 941 kg/m3
323.15 K, 621.05 kPa | 941 kg/m3
323.15 K, 643.29 kPa | 941.1 kg/m3
323.15 K, 663.11 kPa | 941 kg/m3
323.15 K, 684.47 kPa | 941.1 kg/m3
323.15 K, 711.74 kPa | 941 kg/m3
323.15 K, 735.9 kPa | 941.1 kg/m3
323.15 K, 761.44 kPa | 941.1 kg/m3
323.15 K, 788.7 kPa | 941.2 kg/m3
323.15 K, 806.43 kPa | 941.1 kg/m3
323.15 K, 824.32 kPa | 941.2 kg/m3
323.15 K, 839.78 kPa | 941.2 kg/m3
323.15 K, 855.59 kPa | 941.1 kg/m3
323.15 K, 972.85 kPa | 941.4 kg/m3
323.15 K, 994.21 kPa | 941.3 kg/m3
323.15 K, 1021.5 kPa | 941.4 kg/m3
323.15 K, 1039.6 kPa | 941.3 kg/m3
323.15 K, 1067.7 kPa | 941.3 kg/m3
